Source: ChEMBL document CHEMBL5214900, “Design, Synthesis, and Biological Evaluation of Membrane-Active Bakuchiol Derivatives as Effective Broad-Spectrum Antibacterial Agents” (J Med Chem, 2021)
Converted amounts (≈) assume the structure as drawn.

Legend:
Escherichia coli = test: Antibacterial activity against Escherichia coli ATCC 25922 assessed as inhibition of bacterial growth incubated for 24 hrs by CLSI based broth dilution method; format: functional
Staphylococcus aureus [1] = test: Antibacterial activity against methicillin-resistant Staphylococcus aureus N315 assessed as inhibition of bacterial growth incubated for 24 hrs by CLSI based broth dilution method; format: functional
[2] = Hemolytic activity in rabbit RBC measured after 1 hrs by multimode reader assay; format: toxicity, cell-based, Oryctolagus cuniculus, Erythrocyte; details: rabbit red blood cells (erythrocytes)
Staphylococcus aureus [3] = test: Antibacterial activity against methicillin-resistant Staphylococcus aureus NCTC10442 assessed as inhibition of bacterial growth incubated for 24 hrs by CLSI based broth dilution method; format: functional
Staphylococcus aureus [4] = test: Antibacterial activity against Staphylococcus aureus ATCC 29213 assessed as inhibition of bacterial growth incubated for 24 hrs by CLSI based broth dilution method; format: functional

Row | Compound | MIC (Escherichia coli) [µg/mL] | MIC (Staphylococcus aureus [1]) [µg/mL] | HC50 at 1 h [2] [µg/mL] | MIC (Staphylococcus aureus [3]) [µg/mL] | MIC (Staphylococcus aureus [4]) [µg/mL]
1 | C=C[C@@](C)(/C=C/c1ccc(OCCCN(CC)CC)cc1)CCC=C(C)C | > 100 | 3.12 (≈ 8.46 µM) | 102 | 3.12 (≈ 8.46 µM) | 3.12 (≈ 8.46 µM)
2 | C=C[C@@](C)(/C=C/c1ccc(OCCCN(CCCC)CCCC)cc1)CCC=C(C)C | > 100 | > 50 | > 200 | > 50 | > 50
3 | C=C[C@@](C)(/C=C/c1ccc(OCCCCNCCCCCCCCCC)cc1)CCC=C(C)C | > 100 | 12.5 (≈ 26.7 µM) | > 200 | 50 (≈ 107 µM) | 50 (≈ 107 µM)
4 | C=C[C@@](C)(/C=C/c1ccc(OCCCCNCC)cc1)CCC=C(C)C | 12.5 (≈ 35.2 µM) | 0.78 (≈ 2.19 µM) | 21.8 | 1.56 (≈ 4.39 µM) | 1.56 (≈ 4.39 µM)
5 | C=C[C@@](C)(/C=C/c1ccc(OCCCCBr)cc1)CCC=C(C)C | > 100 | > 50 | > 200 | > 50 | > 50
6 | C=C[C@@](C)(/C=C/c1ccc(OCCCCCCCCCCBr)cc1)CCC=C(C)C | > 100 | > 50 | > 200 | > 50 | > 50
7 | C=C[C@@](C)(/C=C/c1ccc(OCCCCCCCCBr)cc1)CCC=C(C)C | > 100 | > 50 | > 200 | > 50 | > 50
8 | C=C[C@@](C)(/C=C/c1ccc(OCCCCCCCCCCN(CC)CC)cc1)CCC=C(C)C | > 100 | 3.12 (≈ 6.68 µM) | > 200 | 3.13 (≈ 6.68 µM) | 12.5 (≈ 26.7 µM)
9 | C=C[C@@](C)(/C=C/c1ccc(OCCCCNCCSC)cc1)CCC=C(C)C | 50 (≈ 124 µM) | 0.78 (≈ 1.94 µM) | 32.5 | 1.56 (≈ 3.88 µM) | 0.78 (≈ 1.94 µM)
10 | C=C[C@@](C)(/C=C/c1ccc(OCCCCCCCCN(CC)CC)cc1)CCC=C(C)C | > 100 | 1.56 (≈ 3.55 µM) | 83.5 | 1.56 (≈ 3.55 µM) | 3.12 (≈ 7.11 µM)
11 | C=C[C@@](C)(/C=C/c1ccc(OCCCCNCCCCCC)cc1)CCC=C(C)C | 100 (≈ 243 µM) | 0.78 (≈ 1.89 µM) | 120 | 1.56 (≈ 3.79 µM) | 1.56 (≈ 3.79 µM)
12 | C=C[C@@](C)(/C=C/c1ccc(OCCCCN(CC)CC)cc1)CCC=C(C)C | > 100 | 3.12 (≈ 8.15 µM) | 109 | 3.12 (≈ 8.15 µM) | 3.12 (≈ 8.15 µM)
13 | C=C[C@@](C)(/C=C/c1ccc(OCCCCN2CCCC2)cc1)CCC=C(C)C | > 100 | 1.56 (≈ 4.09 µM) | 58.2 | 1.56 (≈ 4.09 µM) | 1.56 (≈ 4.09 µM)
14 | C=C[C@@](C)(/C=C/c1ccc(OCCCCN(CCCC)CCCC)cc1)CCC=C(C)C | > 100 | > 50 | > 200 | > 50 | > 50
15 | C=C[C@@](C)(/C=C/c1ccc(OCCCC[N+](C)(CC)CC)cc1)CCC=C(C)C.[I-] | 12.5 | 0.39 | 57 | 0.78 | 1.56
16 | C=C[C@@](C)(/C=C/c1ccc(OCCCCCCN(CC)CC)cc1)CCC=C(C)C | > 100 | 0.78 (≈ 1.89 µM) | 65 | 1.56 (≈ 3.79 µM) | 3.12 (≈ 7.59 µM)
17 | C=C[C@@](C)(/C=C/c1ccc(OCCCCCCBr)cc1)CCC=C(C)C | > 100 | > 50 | > 200 | > 50 | > 50
18 | C=C[C@@](C)(/C=C/c1ccc(OCCCN(C)C)cc1)CCC=C(C)C | > 100 | 6.25 (≈ 18.3 µM) | 88.5 | 6.25 (≈ 18.3 µM) | 6.25 (≈ 18.3 µM)
19 | C=C[C@@](C)(/C=C/c1ccc(OCCCBr)cc1)CCC=C(C)C | > 100 | > 50 | > 200 | > 50 | > 50
20 | C=C[C@@](C)(/C=C/c1ccc(OCCCCN2CCN(C)CC2)cc1)CCC=C(C)C | > 100 | 3.12 (≈ 7.61 µM) | 104 | 3.12 (≈ 7.61 µM) | 1.56 (≈ 3.8 µM)
